The subject of one assay is Excised Aorta of Rat. In words: Test with Excised Aorta of Rat: relaxation of lasting contraction following KCl (30 mM) addition. The class given is cell-based, male Sprague Dawley rat. Conditions: rat thoracic aorta rings, 30 mM KCl contraction, 37° C. The method, then: Test with Excised Aorta of Rat
The thoracic aorta was excised from a male Sprague Dawley rat (450 to 600 g) and cut into 2 mm wide ring preparations. Each preparation was suspended in 10 ml of an organ bath containing a Krebs-Henseleit solution (NaCl:119; KCl:4.8; CaCl2 ·2H2 O: 2.53; KH2 PO4 :1.2; MgSO4 ·7H2 O: 1.2; NaHCO3 : 24.8; glucose: 10 (mM); 37° C.) under a tension of 2 g, and a mixed gas of 95% O2 and 5% CO2 was bubbled therethrough. Isometric contractions of the preparation were recorded by means of an FD pick-up. […] The activity of a test compound to relax a lasting contraction following the KCl addition was evaluated by obtaining a 50% inhibitory concentration (IC50).
The compounds of the present invention obtained in the foregoing Examples and, for comparison, Cromakalim were used as test compounds.

Assay [1] relates to Guinea Pig Tracheal Muscle. The assay can be described thus: Test with Guinea Pig Tracheal Muscle: relaxation of spontaneous tension. It counts as cell-based, male Hartley guinea pig. Conditions: Cavia porcellus; concentration exhibiting 50% relaxing activity, relaxing activity of 1 mM aminophylline taken as 100%, 37° C. The method, then: Test with Guinea Pig Tracheal Muscle
The trachea was excised from a male Hartley guinea pig (450 to 550 g) to make chain preparations. The preparation was suspended in a bath containing the same Krebs-Henseleit solution as used in Test Example 1 (37° C.) through which a mixed gas of 95% O2 and 5% CO2 was bubbled. Isometric contractions of the preparation were recorded under a tension of 1 g.
The same test compounds as used in Test Example 1 were used.

Assay [2] concerns histamine-induced increase in respiratory tract inner pressure. In words: Study on Antiasthmatic Activity: inhibition of histamine-induced increase in respiratory tract inner pressure. It counts as in vivo, male Hartley guinea pig. Conditions: Cavia porcellus; dose for 50% inhibition of histamine-induced increase in respiratory tract inner pressure; intraduodenal, anesthetized guinea pig. Here is the method: Study on Antiasthmatic Activity
A mid-line incision was made in the neck of a male Hartley guinea pig (600 to 800 g, CRJ) under anesthesia with pentobarbitar (40 mg/kg, i.p.). The trachea, the left […], and the left carotid artery were exposed, and a cannula was inserted into each of them. The inner pressure of the respiratory tract was measured while applying artificial respiration through the tracheal cannula. The blood pressure was measured through the arterial cannula, and the heart rate was determined from the pulse. Pentobarbital for anesthesia maintenance was continuously administered through the venous cannula. A mid-line incision was made on the abdomen to expose the duodenum, and a cannula for intraduodenal administration was inserted thereinto. After the postoperative convalescence of 30 to 60 minutes, histamine (5 to 10 μg/kg) was intravenously administered every 10 minutes. After it was confirmed that a respiratory tract inner pressure rise reaction was stably obtained, a test compound in the form of a 0.3% CMC suspension was intraduodenally administered. The histamine dose was so selected that the respiratory tract inner pressure might rise to 20 to 40 cmH2 O after every lntravenous administration. After administration of the test compound, intravenous administration of histamine at 10 minutes intervals was continued. The histamine-induced increase in respiratory tract inner pressure after the administration of the test compound was compared with that before the administration.

For orientation: IC50 means the concentration at which inhibition is half-maximal. The ED50 is the dose that gives a 50% effect, or the effect in half of the subjects. The low end stands for an effect at a small dose, the high end for a need for a large dose. As for `CC1(C)Oc2ccc(C#N)cc2[C@@H](N2CCCC2=O)[C@@H]1O` (relative stereo) [Cromakalim, reference compound], the IC50 in the assay on Excised Aorta of Rat came to 180 nM; in assay [1] it was 790 nM. Besides, the 50% effective dose (ED50) in assay [2] lay in the range of 1 to 3 mg/kg.
Regarding `CNC(=S)C1=CC(C)(C)Oc2ccc(C#N)cc21` [Compound 3, N-Methyl-6-cyano-2,2-dimethyl-2H-1-benzopyran-4-carbothioamide], the IC50 is 33 nM with Excised Aorta of Rat and 200 nM in assay [1].
`CNC(=S)C1=CC(C)(C)Oc2ccc([N+](=O)[O-])cc21` [Compound 8, N,2,2-Trimethyl-6-nitro-2H-1-benzopyran-4-carbothioamide]: the results for the IC50 (in the assay with Excised Aorta of Rat; in assay [1]) were 1.4 nM and 6.3 nM, respectively. In addition, in assay [2], the ED50 lay in the range of 0.1 to 0.3 mg/kg.
In the case of `CNC(=O)C1=CC(C)(C)Oc2ccc([N+](=O)[O-])cc21` [Compound 10, N-Methyl-6-nitro-2,2-dimethyl-2H-1-benzopyran-4-carboxamide], the IC50 in the assay with Excised Aorta of Rat stood at 11 nM; in assay [1], 33 nM. The compound further yielded an ED50 in assay [2] of less than 0.1 mg/kg.
In the same order, the values of `CN(C)C(=NC#N)C1=CC(C)(C)Oc2ccc([N+](=O)[O-])cc21` [Compound 11, N^2 -Cyano-N^1,N^1-dimethyl-6-nitro-2,2-dimethyl-2H-1-benzopyran-4-carboxamidine] are more than 30000 nM, 54 nM and 0.1 mg/kg.
As to `CN=C(NC#N)C1=CC(C)(C)Oc2ccc([N+](=O)[O-])cc21` [Compound 12, N-Cyano-N'-methyl-6-nitro-2,2-dimethyl-2H-1-benzopyran-4-carboxamidine], the figures for the IC50 (in the assay on Excised Aorta of Rat; in assay [1]) were 11 nM and 23 nM, respectively. Also, the ED50 in assay [2] lay in the range of 0.1 to 0.3 mg/kg.
The like results for `CNC(=O)C1CC(C)(C)Oc2ccc([N+](=O)[O-])cc21` (stereo not shown) [Compound 22, N-Methyl-3,4-dihydro-6-nitro-2,2-dimethyl-2H-1-benzopyran-4-carboxamide] were, in that order, 14 nM, 36 nM and less than 0.3 mg/kg.
For the compound `CCC1(C)C=C(C(=S)NC)c2cc([N+](=O)[O-])ccc2O1` (stereo not shown) [Compound 90], the IC50 in the assay with Excised Aorta of Rat turned out to be 0.18 nM; in assay [1], 2.9 nM.
Take `CNC(=S)C1=CC2(CCCCC2)Oc2ccc([N+](=O)[O-])cc21` [Compound 91]: the 50% inhibitory concentration (IC50) in the assay on Excised Aorta of Rat was 0.14 nM; in assay [1], 38 nM.
In the same order, the values of `CNC(=S)C1=CC(C)(C)Oc2ccc(C(F)(F)F)cc21` [Compound 104] are 2.6 nM and 37 nM.
The like results for `CCNC(=S)C1=CC(C)(C)Oc2ccc([N+](=O)[O-])cc21` [Compound 113] were, in that order, 3.7 nM and 11 nM.
The like results for `CCCNC(=S)C1=CC(C)(C)Oc2ccc([N+](=O)[O-])cc21` [Compound 115] were, in that order, 3 nM and 41 nM.
Take `CNC(=S)C1=CC2(CCCC2)Oc2ccc([N+](=O)[O-])cc21` [Compound 128]: the IC50 amounted to 0.037 nM in the assay with Excised Aorta of Rat and 50 nM in assay [1].
As for `CNC(=S)C1=CC(C)(C)Oc2ccc(Br)cc21` [Compound 134], the IC50 with Excised Aorta of Rat turned out to be 9.3 nM; in assay [1], 75 nM.
In the same order, the values of `CC1(C)C=C(C(=S)NC2CC2)c2cc([N+](=O)[O-])ccc2O1` [Compound 137] are 3.7 nM and 22 nM.
The like results for `CCCNC(=O)C1=CC(C)(C)Oc2ccc([N+](=O)[O-])cc21` [Compound 146] were, in that order, 5.7 nM and 56 nM.
For `CCC1(C)C=C(C(=O)NC)c2cc([N+](=O)[O-])ccc2O1` (stereo not shown) [Compound 181], the IC50 was found to be 2.1 nM with Excised Aorta of Rat and 16 nM in assay [1]. Further, the ED50 in assay [2] was 0.1 to 0.3 mg/kg.
For `CNC(=O)C1=CC2(CCCCC2)Oc2ccc([N+](=O)[O-])cc21` [Compound 186], the IC50 with Excised Aorta of Rat amounted to 0.042 nM; in assay [1], 11 nM.
`CCN(CC)C(=O)C1=CC(C)(C)Oc2ccc([N+](=O)[O-])cc21` [Compound 193]: the figures for the IC50 (in the assay on Excised Aorta of Rat; in assay [1]) were 6000 nM and 57 nM, respectively. Besides, in assay [2], the ED50 was less than 0.3 mg/kg.

Source of the values: patent US5412117A, “Benzopyran derivatives” (Chugai Seiyaku Kabushiki Kaisha, priority 1990, dated 1995).
